Measured values reported in ChEMBL document CHEMBL3044921, “Synthesis, characterization, and SAR studies of new (1H-indol-3-yl)alkyl-3-(1H-indol-3-yl)propanamide derivatives as possible antimicrobial and antitubercular agents” (2013).
Converted amounts (≈) assume the structure as drawn.

Columns and labels:
Talaromyces marneffei [1] = test: Antifungal activity against Talaromyces marneffei assessed as growth inhibition at […] to […] ug/ml after 3 to 4 days by agar well diffusion method; format: functional
Aspergillus fumigatus [2] = test: Antifungal activity against Aspergillus fumigatus NCIM 902 assessed as growth inhibition at […] to […] ug/ml after 3 to 4 days by agar well diffusion method; format: functional
Aspergillus flavus [3] = test: Antifungal activity against Aspergillus flavus NCIM 524 assessed as growth inhibition at […] to […] ug/ml after 3 to 4 days by agar well diffusion method; format: functional
Candida albicans [4] = test: Antifungal activity against Candida albicans assessed as growth inhibition after 3 to 4 days by serial plate dilution method; format: functional
[5] = test system: Trichophyton mentagrophytes; test: Antifungal activity against Trichophyton mentagrophytes assessed as growth inhibition after 3 to 4 days by serial plate dilution method; format: functional
Talaromyces marneffei [6] = test: Antifungal activity against Talaromyces marneffei assessed as growth inhibition after 3 to 4 days by serial plate dilution method; format: functional
Aspergillus fumigatus [7] = test: Antifungal activity against Aspergillus fumigatus NCIM 902 assessed as growth inhibition after 3 to 4 days by serial plate dilution method; format: functional
Aspergillus flavus [8] = test: Antifungal activity against Aspergillus flavus NCIM 524 assessed as growth inhibition after 3 to 4 days by serial plate dilution method; format: functional
Streptococcus pyogenes [9] = format: functional
Description: Antibacterial activity against Streptococcus pyogenes assessed as growth inhibition at 1.56 to 25 ug/ml after 3 to 4 days by agar well diffusion method

Klebsiella pneumoniae [10] = format: functional
Description: Antibacterial activity against Klebsiella pneumoniae assessed as growth inhibition at 1.56 to 25 ug/ml after 3 to 4 days by agar well diffusion method

Pseudomonas aeruginosa [11] = format: functional, ATCC 27853
Description: Antibacterial activity against Pseudomonas aeruginosa ATCC 27853 assessed as growth inhibition at 1.56 to 25 ug/ml after 3 to 4 days by agar well diffusion method

Staphylococcus aureus [12] = format: functional, ATCC 25923
Description: Antibacterial activity against Staphylococcus aureus ATCC 25923 assessed as growth inhibition at 1.56 to 25 ug/ml after 3 to 4 days by agar well diffusion method

Streptococcus pyogenes [13] = test: Antibacterial activity against Streptococcus pyogenes assessed as growth inhibition after 16 to 18 hr by serial plate dilution method; format: functional
[14] = test system: Mycolicibacterium fortuitum; test: Antitubercular activity against Mycobacterium fortuitum ATCC 19542 assessed as growth inhibition at 0.3125 to 5 ug/mL after 7 days by resazurin reduction test; format: functional; settings: ATCC 19542, 168 h
[15] = test system: Mycolicibacterium smegmatis; test: Antitubercular activity against Mycobacterium smegmatis ATCC 19420 assessed as growth inhibition at 0.3125 to 5 ug/mL after 7 days by resazurin reduction test; format: functional; settings: ATCC 19420, 168 h
[16] = test system: Mycobacterium tuberculosis; test: Antitubercular activity against Mycobacterium tuberculosis H37Rv ATCC 27294 assessed as growth inhibition at 0.3125 to 5 ug/mL after 7 days by resazurin reduction test; format: functional; settings: H37Rv ATCC 27294, 168 h
[17] = test system: Mycolicibacterium smegmatis; test: Antitubercular activity against Mycobacterium smegmatis ATCC 19420 assessed as growth inhibition at 1 to 100 ug/mL after 7 days by resazurin reduction test; format: functional; settings: ATCC 19420, 168 h
[18] = test system: Mycolicibacterium fortuitum; test: Antitubercular activity against Mycobacterium fortuitum ATCC 19542 assessed as growth inhibition at 1 to 100 ug/mL after 7 days by resazurin reduction test; format: functional; settings: ATCC 19542, 168 h
[19] = test system: Mycobacterium tuberculosis; test: Antitubercular activity against Mycobacterium tuberculosis H37Rv ATCC 27294 assessed as growth inhibition at 1 to 100 ug/mL after 7 days by resazurin reduction test; format: functional; settings: for MIC: Mycobacterium tuberculosis, H37Rv ATCC 27294, 168 h
Candida albicans [20] = test: Antifungal activity against Candida albicans assessed as growth inhibition at […] to […] ug/ml after 3 to 4 days by agar well diffusion method; format: functional
[21] = test system: Trichophyton mentagrophytes; test: Antifungal activity against Trichophyton mentagrophytes assessed as growth inhibition at […] to […] ug/ml after 3 to 4 days by agar well diffusion method; format: functional
Klebsiella pneumoniae [22] = test: Antibacterial activity against Klebsiella pneumoniae assessed as growth inhibition after 16 to 18 hr by serial plate dilution method; format: functional
Pseudomonas aeruginosa [23] = test: Antibacterial activity against Pseudomonas aeruginosa ATCC 27853 assessed as growth inhibition after 16 to 18 hr by serial plate dilution method; format: functional
Escherichia coli [24] = test: Antibacterial activity against Escherichia coli […] assessed as growth inhibition after 16 to 18 hr by serial plate dilution method; format: functional
Staphylococcus aureus [25] = test: Antibacterial activity against Staphylococcus aureus ATCC 25923 assessed as growth inhibition after 16 to 18 hr by serial plate dilution method; format: functional
Escherichia coli [26] = format: functional, ATCC 24922
Description: Antibacterial activity against Escherichia coli ATCC 24922 assessed as growth inhibition at 1.56 to 25 ug/ml after 3 to 4 days by agar well diffusion method

SMILES | diameter of the inhibition zone (DIZ) (Talaromyces marneffei [1]) [mm] | diameter of the inhibition zone (DIZ) (Aspergillus fumigatus [2]) [mm] | diameter of the inhibition zone (DIZ) (Aspergillus flavus [3]) [mm] | MIC (Candida albicans [4]) [µg/mL] | MIC [5] [µg/mL] | MIC (Talaromyces marneffei [6]) [µg/mL] | MIC (Aspergillus fumigatus [7]) [µg/mL] | MIC (Aspergillus flavus [8]) [µg/mL] | diameter of the inhibition zone (DIZ) (Streptococcus pyogenes [9]) [mm] | diameter of the inhibition zone (DIZ) (Klebsiella pneumoniae [10]) [mm] | diameter of the inhibition zone (DIZ) (Pseudomonas aeruginosa [11]) [mm] | diameter of the inhibition zone (DIZ) (Staphylococcus aureus [12]) [mm] | MIC (Streptococcus pyogenes [13]) [µg/mL] | MIC [14] [µg/mL] | MIC [15] [µg/mL] | MIC [16] [µg/mL] | MIC [17] [µg/mL] | MIC [18] [µg/mL] | growth inhibition (GI) [19] [%] | MIC [19] [µg/mL] | also measured
Cn1cc(CCCNC(=O)CCc2c[nH]c3ccc(Cl)cc23)c2cc(OC(F)(F)F)ccc21 | 11 | <10 | <10 | 25 (≈ 52.3 µM) | 25 (≈ 52.3 µM) | 12.5 (≈ 26.2 µM) | 25 (≈ 52.3 µM) | 25 (≈ 52.3 µM) | 16 | 16 | 16 | 16 | 6.25 (≈ 13.1 µM) | 10 (≈ 20.9 µM) | 10 (≈ 20.9 µM) | 0.625 (≈ 1.31 µM) | 10 (≈ 20.9 µM) | 10 (≈ 20.9 µM) | 95 | 1 (≈ 2.09 µM) | diameter of the inhibition zone (DIZ) (Candida albicans [20]): <10 mm; diameter of the inhibition zone (DIZ) [21]: <10 mm; MIC (Klebsiella pneumoniae [22]): 6.25 µg/mL (≈ 13.1 µM); MIC (Pseudomonas aeruginosa [23]): 6.25 µg/mL (≈ 13.1 µM); MIC (Escherichia coli [24]): 6.25 µg/mL (≈ 13.1 µM); MIC (Staphylococcus aureus [25]): 6.25 µg/mL (≈ 13.1 µM); diameter of the inhibition zone (DIZ) (Escherichia coli [26]): 16 mm
Cc1[nH]c2ccc(OC(F)(F)F)cc2c1CCCNC(=O)CCc1c[nH]c2ccc(Cl)cc12 | 16 | 16 | 16 | 6.25 (≈ 13.1 µM) | 6.25 (≈ 13.1 µM) | 6.25 (≈ 13.1 µM) | 6.25 (≈ 13.1 µM) | 6.25 (≈ 13.1 µM) | 16 | 16 | 16 | 16 | 6.25 (≈ 13.1 µM) | 10 (≈ 20.9 µM) | 10 (≈ 20.9 µM) | 2.5 (≈ 5.23 µM) | 10 (≈ 20.9 µM) | 10 (≈ 20.9 µM) | <90 | 10 (≈ 20.9 µM) | diameter of the inhibition zone (DIZ) (Candida albicans [20]): 16 mm; diameter of the inhibition zone (DIZ) [21]: 16 mm; MIC (Klebsiella pneumoniae [22]): 6.25 µg/mL (≈ 13.1 µM); MIC (Pseudomonas aeruginosa [23]): 6.25 µg/mL (≈ 13.1 µM); MIC (Escherichia coli [24]): 6.25 µg/mL (≈ 13.1 µM); MIC (Staphylococcus aureus [25]): 6.25 µg/mL (≈ 13.1 µM); diameter of the inhibition zone (DIZ) (Escherichia coli [26]): 16 mm
Cn1cc(CCC(=O)NCCCc2c[nH]c3ccc(OC(F)(F)F)cc23)c2cc(Cl)ccc21 | <10 | 11 | 11 | 6.25 (≈ 13.1 µM) | 25 (≈ 52.3 µM) | 25 (≈ 52.3 µM) | 12.5 (≈ 26.2 µM) | 12.5 (≈ 26.2 µM) | 16 | 11 | 11 | 16 | 6.25 (≈ 13.1 µM) | 10 (≈ 20.9 µM) | 10 (≈ 20.9 µM) | 0.625 (≈ 1.31 µM) | 10 (≈ 20.9 µM) | 10 (≈ 20.9 µM) | 95 | 1 (≈ 2.09 µM) | diameter of the inhibition zone (DIZ) (Candida albicans [20]): 16 mm; diameter of the inhibition zone (DIZ) [21]: <10 mm; MIC (Klebsiella pneumoniae [22]): 12.5 µg/mL (≈ 26.2 µM); MIC (Pseudomonas aeruginosa [23]): 12.5 µg/mL (≈ 26.2 µM); MIC (Escherichia coli [24]): 12.5 µg/mL (≈ 26.2 µM); MIC (Staphylococcus aureus [25]): 6.25 µg/mL (≈ 13.1 µM); diameter of the inhibition zone (DIZ) (Escherichia coli [26]): 11 mm
O=C(CCc1c[nH]c2ccc(Cl)cc12)NCc1c[nH]c2ccc(OC(F)(F)F)cc12 | 16 | 16 | 16 | 6.25 (≈ 14.3 µM) | 6.25 (≈ 14.3 µM) | 6.25 (≈ 14.3 µM) | 6.25 (≈ 14.3 µM) | 6.25 (≈ 14.3 µM) | 11 | 16 | 16 | 16 | 12.5 (≈ 28.7 µM) | 1.25 (≈ 2.87 µM) | 1.25 (≈ 2.87 µM) | 1.25 (≈ 2.87 µM) | 1 (≈ 2.29 µM) | 10 (≈ 22.9 µM) | 90 | 1 (≈ 2.29 µM) | diameter of the inhibition zone (DIZ) (Candida albicans [20]): 16 mm; diameter of the inhibition zone (DIZ) [21]: 16 mm; MIC (Klebsiella pneumoniae [22]): 6.25 µg/mL (≈ 14.3 µM); MIC (Pseudomonas aeruginosa [23]): 6.25 µg/mL (≈ 14.3 µM); MIC (Escherichia coli [24]): 6.25 µg/mL (≈ 14.3 µM); MIC (Staphylococcus aureus [25]): 6.25 µg/mL (≈ 14.3 µM); diameter of the inhibition zone (DIZ) (Escherichia coli [26]): 16 mm
